In paper PMC3411833, “The Two PPX-GppA Homologues from Mycobacterium tuberculosis Have Distinct Biochemical Activities” (PLoS ONE, 2012):

Columns and labels:
MTB-PPX1 (Rv0496) [1] = molecular target: T1, MTB-PPX1 (Rv0496) (Mycobacterium tuberculosis, UniProt P9WHV5)
MTB-PPX1 (Rv0496) [2] = molecular target: T1, MTB-PPX1 (Rv0496); remark: listed apart in the source
Rv1026 = molecular target: T2, Rv1026 (Mycobacterium tuberculosis, UniProt P96374)
T2 construct: gene ppx2
T2 sequence (P96374 whole entry): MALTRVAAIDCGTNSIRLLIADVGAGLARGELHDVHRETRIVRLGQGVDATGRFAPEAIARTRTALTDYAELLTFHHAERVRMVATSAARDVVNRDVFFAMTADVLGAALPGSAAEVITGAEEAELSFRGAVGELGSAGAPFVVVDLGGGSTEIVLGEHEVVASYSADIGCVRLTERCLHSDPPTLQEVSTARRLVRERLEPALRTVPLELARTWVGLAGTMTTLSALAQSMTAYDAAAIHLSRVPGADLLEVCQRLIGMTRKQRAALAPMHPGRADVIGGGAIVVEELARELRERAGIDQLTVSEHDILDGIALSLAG

T1 sequence (P9WHV5 whole entry): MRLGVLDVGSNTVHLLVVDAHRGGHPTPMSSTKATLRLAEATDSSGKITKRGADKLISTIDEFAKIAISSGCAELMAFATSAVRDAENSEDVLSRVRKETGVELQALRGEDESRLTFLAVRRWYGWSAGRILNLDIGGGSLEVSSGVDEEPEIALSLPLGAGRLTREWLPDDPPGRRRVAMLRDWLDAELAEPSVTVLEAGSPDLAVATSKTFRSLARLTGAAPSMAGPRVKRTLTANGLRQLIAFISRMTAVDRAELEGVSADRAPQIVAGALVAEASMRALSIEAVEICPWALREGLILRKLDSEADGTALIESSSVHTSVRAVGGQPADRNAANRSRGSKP

SMILES: Nc1nc2c(ncn2[C@@H]2O[C@H](COP(=O)(O)OP(=O)(O)O)[C@@H](OP(=O)(O)OP(=O)(O)O)[C@H]2O)c(=O)[nH]1 [ppGpp, guanosine 3′,5′-bisdiphosphate]
- Exopolyphosphatase activities / +1 mM ppGpp / (% decrease) / ATPase activities (MTB-PPX1 (Rv0496) [1]): 5.9±0.7%

SMILES: Nc1nc2c(ncn2[C@@H]2O[C@H](COP(=O)(O)OP(=O)(O)OP(=O)(O)O)[C@@H](OP(=O)(O)OP(=O)(O)O)[C@H]2O)c(=O)[nH]1 [pppGpp, guanosine 5′-triphosphate, 3′-diphosphate]
- Exopolyphosphatase activities / +1 mM pppGpp / (% decrease) / ATPase activities (MTB-PPX1 (Rv0496) [2]): 37.9±6.7%
- Exopolyphosphatase activities / +1 mM pppGpp / (% decrease) / ATPase activities (Rv1026): 32.3±9.4%
